According to US10294202B2, “Pyrrolidinones as herbicides” (FMC Corporation, priority 2013, dated 2019):

Experiments:
[1] = tested on: ragweed; assay: Test A pre-/postemergence herbicide test; assay type: in vivo, Ambrosia elatior
In short: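 Visual 0–100 ratings (100 = complete control) made about 10 days after treatment, greenhouse-held plants compared with untreated controls. Treatments: postemergence sprays on one- to two-leaf plants (2–10 cm tall) and preemergence directed soil sprays after planting in loam–sand, chemicals formulated in non-phytotoxic solvent containing surfactant.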

[2] = tested on: wheat (winter wheat); assay: Test C pre-/postemergence herbicide test; assay type: in vivo, Triticum aestivum; settings: for Wheat plant response rating: scale 0 to 100, 0 is no effect and 100 is complete control
In short: (§1)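 Greenhouse plants scored visually against untreated controls 13–15 days after treatment, 0 = no effect, 100 = complete control. Test chemicals in a non-phytotoxic solvent with surfactant were applied either to soil (loam/sand) at planting or to foliage of 1- to 4-leaf plants, 2–18 cm tall.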

[3] = tested on: crabgrass, large; assay: Test C pre-/postemergence herbicide test; assay type: in vivo, Digitaria sanguinalis; settings: for Crabgrass, Large plant response rating: scale 0 to 100, 0 is no effect and 100 is complete control
In short: as §1

[4] = tested on: lambsquarters; assay: Test C pre-/postemergence herbicide test; assay type: in vivo, Chenopodium album; settings: for Lambsquarters plant response rating: scale 0 to 100, 0 is no effect and 100 is complete control
In short: as §1

[5] = tested on: pigweed; assay: Test C pre-/postemergence herbicide test; assay type: in vivo, Amaranthus retroflexus; settings: for Pigweed plant response rating: scale 0 to 100, 0 is no effect and 100 is complete control
In short: as §1

[6] = tested on: velvetleaf; assay: Test C pre-/postemergence herbicide test; assay type: in vivo, Abutilon theophrasti; settings: for Velvetleaf plant response rating: scale 0 to 100, 0 is no effect and 100 is complete control
In short: as §1

[7] = tested on: chickweed; assay: Test C postemergence herbicide test; assay type: in vivo, Stellaria media
Description: At the same time, plants selected from these crop and weed species and also barley (winter barley, Hordeum vulgare), […]), chickweed (common chickweed, Stellaria media), deadnettle (henbit deadnettle, Lamium amplexicaule), and canarygrass (littleseed canarygrass, Phalaris minor) were planted in pots containing Redi-Earth® planting medium (Scotts Company, 14111 Scottslawn Road, Marysville, Ohio 43041) comprising spaghnum peat moss, vermiculite, wetting agent and starter nutrients and treated with postemergence applications of test chemicals formulated in the same manner. Plants ranged in height from 2 to 18 cm (1- to 4-leaf stage) for postemergence treatments. Treated plants and controls were maintained in a greenhouse for 13 to 15 days, after which time all species were compared to controls and visually evaluated. Plant response ratings, summarized in Table C, are based on a scale of 0 to 100 where 0 is no effect and 100 is complete control. A dash (-) response means no test result.

[8] = Postemergence, 31 g ai/ha, scale 0 (no effect) to 100 (complete control)
[9] = Postemergence, 62 g ai/ha, scale 0 to 100 (0 no effect, 100 complete control)
[10] = Postemergence, 125 g ai/ha, scale 0 to 100 (0 no effect, 100 complete control)
[11] = Postemergence, 250 g ai/ha, scale 0 to 100 (0 no effect, 100 complete control)
[12] = Preemergence, 62 g ai/ha, scale 0 to 100
[13] = Preemergence, 125 g ai/ha, scale 0 to 100 (0 no effect, 100 complete control)
[14] = 31 g ai/ha, scale 0 (no effect) to 100 (complete control)
[15] = 62 g ai/ha, scale 0 to 100 (0 no effect, 100 complete control)
[16] = 125 g ai/ha, scale 0 to 100 (0 no effect, 100 complete control)
[17] = 250 g ai/ha, scale 0 to 100 (0 no effect, 100 complete control)

For `Cc1ccccc1NC(=O)C1C(=O)NCC1c1cccc(C(F)(F)F)c1` (racemic) [Compound 109], the “Plant response rating, Ragweed” value ([1]; Postemergence, 125 g ai/ha, 0 to 100 scale, 0 no effect, 100 complete control) was 0, the “Plant response rating, Ragweed” value ([1]; Postemergence, 500 g ai/ha, 0 to 100 scale (0 no effect, 100 complete control)) was 0 and the “Ragweed plant response rating” value ([1]; Preemergence, 125 g ai/ha, visual rating on 0 to 100 scale (0 no effect, 100 complete control)) was 0. For the same molecule, the “Plant response rating, Ragweed” value ([1]; preemergence, 500 g ai/ha, 0 to 100 scale) was 0, the “Plant response rating, Wheat” value [2, 8] was 0 and the “Plant response rating, Wheat” value [2, 9] was 0. The “Plant response rating, Wheat” value [2, 10] was 0, the “Plant response rating, Wheat” value [2, 11] was 0 and the “Wheat plant response rating” value ([2]; Preemergence, 31 g ai/ha) was 0. For the same molecule, the “Plant response rating, Wheat” value [2, 12] was 10, the “Plant response rating, Wheat” value [2, 13] was 50 and the “Plant response rating (scale of 0 to 100), Wheat” value ([2]; Preemergence, 250 g ai/ha) was 85. For the same molecule, the “Plant response rating, Crabgrass, Large” value [3, 8] was 10, the “Plant response rating, Crabgrass, Large” value [3, 9] was 10 and the “Plant response rating, Crabgrass, Large” value [3, 10] was 40. For the same molecule, the “Plant response rating, Crabgrass, Large” value [3, 11] was 70, the “Crabgrass, Large plant response rating” value ([3]; Preemergence, 31 g ai/ha) was 98 and the “Plant response rating, Crabgrass, Large” value [3, 12] was 100. The “Plant response rating, Crabgrass, Large” value [3, 13] was 100, the “Plant response rating (scale of 0 to 100), Crabgrass, Large” value ([3]; Preemergence, 250 g ai/ha) was 100 and the “Plant response rating, Lambsquarters” value [4, 8] was 0. The “Plant response rating, Lambsquarters” value [4, 9] was 0, the “Plant response rating, Lambsquarters” value [4, 10] was 0 and the “Plant response rating, Lambsquarters” value [4, 11] was 5. The “Lambsquarters plant response rating” value ([4]; Preemergence, 31 g ai/ha) was 0, the “Plant response rating, Lambsquarters” value [4, 12] was 0 and the “Plant response rating, Lambsquarters” value [4, 13] was 5. The “Plant response rating (scale of 0 to 100), Lambsquarters” value ([4]; Preemergence, 250 g ai/ha) was 0, the “Plant response rating, Pigweed” value [5, 8] was 5 and the “Plant response rating, Pigweed” value [5, 9] was 5. For the same molecule, the “Plant response rating, Pigweed” value [5, 10] was 5, the “Plant response rating, Pigweed” value [5, 11] was 10 and the “Pigweed plant response rating” value ([5]; Preemergence, 31 g ai/ha) was 30. For the same molecule, the “Plant response rating, Pigweed” value [5, 12] was 0, the “Plant response rating, Pigweed” value [5, 13] was 0 and the “Plant response rating (scale of 0 to 100), Pigweed” value ([5]; Preemergence, 250 g ai/ha) was 20. For the same molecule, the “Plant response rating, Velvetleaf” value [6, 8] was 0, the “Plant response rating, Velvetleaf” value [6, 9] was 0 and the “Plant response rating, Velvetleaf” value [6, 10] was 0. The “Plant response rating, Velvetleaf” value [6, 11] was 5, the “Velvetleaf plant response rating” value ([6]; Preemergence, 31 g ai/ha) was 0 and the “Plant response rating, Velvetleaf” value [6, 12] was 0. For the same molecule, the “Plant response rating, Velvetleaf” value [6, 13] was 0, the “Plant response rating (scale of 0 to 100), Velvetleaf” value ([6]; Preemergence, 250 g ai/ha) was 10 and the “Plant response rating, Chickweed” value [7, 14] was 0. The “Plant response rating, Chickweed” value [7, 15] was 0, the “Plant response rating, Chickweed” value [7, 16] was 0 and the “Plant response rating, Chickweed” value [7, 17] was 0.

In the case of `O=C1NCC(c2ccc(C(F)(F)F)cc2)C1C(=O)Nc1ccccc1F` (centres unmarked) [Compound 79, N-(2-fluorophenyl)-2-oxo-4-[4-(trifluoromethyl)phenyl]-3-pyrrolidinecarboxamide], the “Plant response rating, Wheat” value [2, 8] is reported as 0, the “Plant response rating, Wheat” value [2, 9] is reported as 0 and the “Plant response rating, Wheat” value [2, 10] is reported as 0. For the same molecule, the “Plant response rating, Wheat” value [2, 11] was 0, the “Wheat plant response rating” value ([2]; Preemergence, 31 g ai/ha) was 10 and the “Plant response rating, Wheat” value [2, 12] was 40. The “Plant response rating, Wheat” value [2, 13] was 60, the “Plant response rating (scale of 0 to 100), Wheat” value ([2]; Preemergence, 250 g ai/ha) was 75 and the “Plant response rating, Crabgrass, Large” value [3, 8] was 5. The “Plant response rating, Crabgrass, Large” value [3, 9] was 5, the “Plant response rating, Crabgrass, Large” value [3, 10] was 65 and the “Plant response rating, Crabgrass, Large” value [3, 11] was 75. The “Crabgrass, Large plant response rating” value ([3]; Preemergence, 31 g ai/ha) was 95, the “Plant response rating, Crabgrass, Large” value [3, 12] was 98 and the “Plant response rating, Crabgrass, Large” value [3, 13] was 100. For the same molecule, the “Plant response rating (scale of 0 to 100), Crabgrass, Large” value ([3]; Preemergence, 250 g ai/ha) was 100, the “Plant response rating, Lambsquarters” value [4, 8] was 25 and the “Plant response rating, Lambsquarters” value [4, 9] was 50. For the same molecule, the “Plant response rating, Lambsquarters” value [4, 10] was 85, the “Plant response rating, Lambsquarters” value [4, 11] was 85 and the “Lambsquarters plant response rating” value ([4]; Preemergence, 31 g ai/ha) was 90. The “Plant response rating, Lambsquarters” value [4, 12] was 90, the “Plant response rating, Lambsquarters” value [4, 13] was 90 and the “Plant response rating (scale of 0 to 100), Lambsquarters” value ([4]; Preemergence, 250 g ai/ha) was 90. For the same molecule, the “Plant response rating, Pigweed” value [5, 8] was 35, the “Plant response rating, Pigweed” value [5, 9] was 35 and the “Plant response rating, Pigweed” value [5, 10] was 35. The “Plant response rating, Pigweed” value [5, 11] was 35, the “Pigweed plant response rating” value ([5]; Preemergence, 31 g ai/ha) was 10 and the “Plant response rating, Pigweed” value [5, 12] was 40. For the same molecule, the “Plant response rating, Pigweed” value [5, 13] was 50, the “Plant response rating (scale of 0 to 100), Pigweed” value ([5]; Preemergence, 250 g ai/ha) was 65 and the “Plant response rating, Velvetleaf” value [6, 8] was 0. For the same molecule, the “Plant response rating, Velvetleaf” value [6, 9] was 0, the “Plant response rating, Velvetleaf” value [6, 10] was 0 and the “Plant response rating, Velvetleaf” value [6, 11] was 0. For the same molecule, the “Velvetleaf plant response rating” value ([6]; Preemergence, 31 g ai/ha) was 0, the “Plant response rating, Velvetleaf” value [6, 12] was 0 and the “Plant response rating, Velvetleaf” value [6, 13] was 20. For the same molecule, the “Plant response rating (scale of 0 to 100), Velvetleaf” value ([6]; Preemergence, 250 g ai/ha) was 35, the “Plant response rating, Chickweed” value [7, 14] was 60 and the “Plant response rating, Chickweed” value [7, 15] was 80. For the same molecule, the “Plant response rating, Chickweed” value [7, 16] was 90 and the “Plant response rating, Chickweed” value [7, 17] was 90.
